From patent US12421254B2, “KRAS modulators and uses thereof” (Quanta Therapeutics, Inc., priority 2023, dated 2025)
pIC50: −log10 of the molar value.

Assays:
[1] = system: phospho-ERK in SW620 (KRAS-G12V) cells; assay: pERK In Cell Western (ICW) assay (Method B), SW620; type: cell-based; settings: Homo sapiens, SW-620, 3 h, Table 4
In short: (§1)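 In-cell western read-out: phospho-ERK (800 nm) normalized to DRAQ5 (700 nm) per well, expressed as percent of blank control, IC50 from 4-parameter variable-slope fit. Compounds were applied as ½-log 9-point series for 3 h at 37 °C to cells plated the previous day.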

[2] = target: GST-tagged KRAS-G12V (2-169) (Homo sapiens, UniProt P01116, G12V); assay: Nucleotide exchange assay (NEA), SOS-mediated, HTRF, KRAS G12V; type: biochemical; settings: Table 4; IC50 extracted at 90 min; 80 nM SOS
In short: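 Exchange onto fluorescent GTP-DY-647P1 (150 nM final) catalysed by 80 nM SOS1cat was followed by Tb-anti-GST HTRF at RT for up to 90 min, after 1 h compound pre-incubation with 0.25 nM GST-tagged KRAS-G12V (2-169), pH 7.3. DMSO = 0%, no-SOS blank = 100%; 4-parameter IC50 taken at 90 min.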

[3] = system: phospho-ERK in GP2D (KRAS-G12D) cells; assay: pERK In Cell Western (ICW) assay (Method B), GP2D; type: cell-based; settings: GP2d, 3 h, Table 4
In short: as §1

[4] = target: GST-tagged KRAS-G12D (2-169) (Homo sapiens, UniProt P01116, G12D); assay: Nucleotide exchange assay (NEA), SOS-mediated, HTRF, KRAS G12D; type: biochemical; settings: Table 4; IC50 extracted at 30 min; 20 nM SOScat; read-out: NEA G12D IC50
In short: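 SOS1cat-driven loading of fluorescent GTP-DY-647P1 (150 nM) onto GST-KRAS-G12D (2-169, 0.25 nM) read by time-resolved FRET; SOScat 20 nM, compound preincubated with KRAS 1 h at RT. Signal blanked to no-SOS reactions, normalized to DMSO; IC50 fitted from the 30-min read.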

Sequence of GST-tagged KRAS-G12D (2-169) (P01116 2-169 isoform P01116-2 G12D): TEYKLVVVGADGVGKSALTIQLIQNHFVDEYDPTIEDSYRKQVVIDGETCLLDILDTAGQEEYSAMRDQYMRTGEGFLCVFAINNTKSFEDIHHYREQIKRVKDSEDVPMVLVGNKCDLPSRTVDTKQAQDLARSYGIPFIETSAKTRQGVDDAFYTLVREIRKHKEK
Sequence of GST-tagged KRAS-G12V (2-169) (P01116 2-169 isoform P01116-2 G12V): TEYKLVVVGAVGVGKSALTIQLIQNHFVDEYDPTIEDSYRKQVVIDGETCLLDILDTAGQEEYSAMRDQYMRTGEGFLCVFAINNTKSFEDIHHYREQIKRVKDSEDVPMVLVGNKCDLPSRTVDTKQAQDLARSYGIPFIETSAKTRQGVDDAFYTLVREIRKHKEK

| SMILES | pIC50 [1] | pIC50 [2] | pIC50 [3] | pIC50 [4] |
| --- | --- | --- | --- | --- |
| C[C@H](c1cccnc1N)N(CC(F)F)c1nc(OC[C@@H]2CCCN2C)nc(N2CC3(C2)SCc2sc(N)c(C#N)c23)n1 [Compound 196, 2′-amino-1-(4-(((R)-1-(2-aminopyridin-3-yl)ethyl)(2,2-difluoroethyl)amino)-6-(((S)-1-methylpyrrolidin-2-yl)methoxy)-1,3,5-triazin-2-yl)-6′H-spiro[azetidine-3,4′-thieno[3,4-b]thiophene]-3′-carbonitrile] | > 8.00 | > 8.00 | 7.00 to 8.00 | > 8.00 |
| CCN(c1nc(OC[C@@]23CCCN2C[C@H](F)C3)nc(N2CC3(CCc4sc(N)c(C#N)c43)C2=O)n1)[C@H](C)c1cccnc1N (stereo partly drawn) [Compound 201, 2-amino-1′-[4-[[(1R)-1-(2-amino-3-pyridyl)ethyl]-ethyl-amino]-6-[[(2R,8S)-2-fluoro-1,2,3,5,6,7-hexahydropyrrolizin-8-yl]methoxy]-1,3,5-triazin-2-yl]-2′-oxo-spiro[5,6-dihydrocyclopenta[b]thiophene-4,3′-azetidine]-3-carbonitrile] | 7.00 to 8.00 | > 8.00 | 7.00 to 8.00 | > 8.00 |
| CCN(c1nc(OCC2(COC)CCCN2)nc(N2CC3(C2)SCc2sc(N)c(C#N)c23)n1)[C@H](C)c1cccnc1N (stereo partly drawn) [Compound 202, 2-amino-1′-[4-[[(1R)-1-(2-amino-3-pyridyl)ethyl]-ethyl-amino]-6-[[2-(methoxymethyl)pyrrolidin-2-yl]methoxy]-1,3,5-triazin-2-yl]spiro[6H-thieno[3,4-b]thiophene-4,3′-azetidine]-3-carbonitrile] | 7.00 to 8.00 | > 8.00 | 7.00 to 8.00 | > 8.00 |
| CCN(c1nc(OCC2(CN3C4CCC3COC4)CC2)nc(N2CC3(C2)SCc2sc(N)c(C#N)c23)n1)[C@H](C)c1cccnc1N [Compound 203, 2-amino-1′-[4-[[(1R)-1-(2-amino-3-pyridyl)ethyl]-ethyl-amino]-6-[[1-(3-oxa-8-azabicyclo[3.2.1]octan-8-ylmethyl)cyclopropyl]methoxy]-1,3,5-triazin-2-yl]spiro[6H-thieno[3,4-b]thiophene-4,3′-azetidine]-3-carbonitrile] | 7.00 to 8.00 | > 8.00 | 7.00 to 8.00 | > 8.00 |
| CCN(c1nc(OCC23CCC(COC2)N3)nc(N2CC3(C2)SCc2sc(N)c(C#N)c23)n1)[C@H](C)c1cccnc1N (stereo partly drawn) [Compound 204, 1-(4-((3-oxa-8-azabicyclo[3.2.1]octan-1-yl)methoxy)-6-(((R)-1-(2-aminopyridin-3-yl)ethyl)(ethyl)amino)-1,3,5-triazin-2-yl)-2′-amino-6′H-spiro[azetidine-3,4′-thieno[3,4-b]thiophene]-3′-carbonitrile] | 7.00 to 8.00 | > 8.00 | 6.00 to 7.00 | 7.00 to 8.00 |
| CCN(c1nc(OCC23CCCN2CCC3)nc(N2CC3(C2)SCc2sc(N)c(C#N)c23)n1)[C@H](C)c1cccnc1N [Compound 206, (R)-2′-amino-1-(4-((1-(2-aminopyridin-3-yl)ethyl)(ethyl)amino)-6-((tetrahydro-1H-pyrrolizin-7a(5H)-yl)methoxy)-1,3,5-triazin-2-yl)-6′H-spiro[azetidine-3,4′-thieno[3,4-b]thiophene]-3′-carbonitrile] | 7.00 to 8.00 | > 8.00 | > 8.00 | > 8.00 |
| CCN(c1nc(OC[C@@H]2CCCN2C)nc(N2CC3(C2)SCc2sc(N)c(C#N)c23)n1)[C@H](C)c1cccnc1N [Compound 207, 2-amino-1′-[4-[[(1R)-1-(2-amino-3-pyridyl)ethyl]-ethyl-amino]-6-[[(2S)-1-methylpyrrolidin-2-yl]methoxy]-1,3,5-triazin-2-yl]spiro[6H-thieno[3,4-b]thiophene-4,3′-azetidine]-3-carbonitrile] | 7.00 to 8.00 | > 8.00 | 7.00 to 8.00 | > 8.00 |
| CCN(c1nc(OC[C@@H]2C[C@@H](F)CN2)nc(N2CC3(C2)SCc2sc(N)c(C#N)c23)n1)[C@H](C)c1cccnc1N [Compound 209, 2-amino-1′-[4-[[(1R)-1-(2-amino-3-pyridyl)ethyl]-ethyl-amino]-6-[[(2S,4R)-4-fluoropyrrolidin-2-yl]methoxy]-1,3,5-triazin-2-yl]spiro[6H-thieno[3,4-b]thiophene-4,3′-azetidine]-3-carbonitrile] | 7.00 to 8.00 | > 8.00 | > 8.00 | > 8.00 |
| CCN(c1nc(OC[C@]2(CO)CCCN2C)nc(N2CC3(C2)SCc2sc(N)c(C#N)c23)n1)[C@H](C)c1cccnc1N [Compound 213, 2-amino-1′-[4-[[(1R)-1-(2-amino-3-pyridyl)ethyl]-ethyl-amino]-6-[[2-(hydroxymethyl)-1-methyl-pyrrolidin-2-yl]methoxy]-1,3,5-triazin-2-yl]spiro[6H-thieno[3,4-b]thiophene-4,3′-azetidine]-3-carbonitrile] | 7.00 to 8.00 | > 8.00 | 7.00 to 8.00 | > 8.00 |
| CCN(c1nc(OCC23CCCN2CCN(C)C3)nc(N2CC3(C2)SCc2sc(N)c(C#N)c23)n1)[C@H](C)c1cccnc1N (stereo partly drawn) [Compound 223, 2-amino-1′-[4-[[(1R)-1-(2-amino-3-pyridyl)ethyl]-ethyl-amino]-6-[(2-methyl-1,3,4,6,7,8-hexahydropyrrolo[1,2-a]pyrazin-8a-yl)methoxy]-1,3,5-triazin-2-yl]spiro[6H-thieno[3,4-b]thiophene-4,3′-azetidine]-3-carbonitrile] | 7.00 to 8.00 | > 8.00 | 7.00 to 8.00 | > 8.00 |
| CCN(c1nc(OC[C@@]23CCCN2C[C@H](F)C3)nc(N2CC3(C2)c2c(sc(N)c2C#N)CN3C)n1)[C@H](C)c1cccnc1N [Compound 226, 2-amino-1′-[4-[[(1R)-1-(2-amino-3-pyridyl)ethyl]-ethyl-amino]-6-[[(2R,8S)-2-fluoro-1,2,3,5,6,7-hexahydropyrrolizin-8-yl]methoxy]-1,3,5-triazin-2-yl]-5-methyl-spiro[6H-thieno[2,3-c]pyrrole-4,3′-azetidine]-3-carbonitrile] | 7.00 to 8.00 | > 8.00 | 7.00 to 8.00 | > 8.00 |
| CC(C#N)N(CC(F)F)c1nc(OC[C@@]23CCCN2C[C@H](F)C3)nc(N2CC3(C2)SCc2sc(N)c(C#N)c23)n1 (stereo partly drawn) [Compound 258, 2-amino-1′-[4-[1-cyanoethyl(2,2-difluoroethyl)amino]-6-[[(2R,8S)-2-fluoro-1,2,3,5,6,7-hexahydropyrrolizin-8-yl]methoxy]-1,3,5-triazin-2-yl]spiro[6H-thieno[2,3-c]thiophene-4,3′-azetidine]-3-carbonitrile] | 7.00 to 8.00 | > 8.00 | 7.00 to 8.00 | > 8.00 |
| CC(CO)N(c1nc(OC[C@@]23CCCN2C[C@H](F)C3)nc(N2CC3(C2)SCc2sc(N)c(C#N)c23)n1)C1(C#N)CC1 (stereo partly drawn) [Compound 262, 2-amino-1′-[4-[(1-cyanocyclopropyl)-(2-hydroxy-1-methyl-ethyl)amino]-6-[[(2R,8S)-2-fluoro-1,2,3,5,6,7-hexahydropyrrolizin-8-yl]methoxy]-1,3,5-triazin-2-yl]spiro[6H-thieno[3,4-b]thiophene-4,3′-azetidine]-3-carbonitrile] | 7.00 to 8.00 | > 8.00 | 7.00 to 8.00 | > 8.00 |
| C[C@H](c1cccnc1N)N(c1nc(OC[C@@]23CCCN2C[C@H](F)C3)nc(N2CC3(C2)SCc2sc(N)c(C#N)c23)n1)C1CC1 [Compound 264, 2-amino-1′-[4-[[(1R)-1-(2-amino-3-pyridyl)ethyl]-cyclopropyl-amino]-6-[[(2R,8S)-2-fluoro-1,2,3,5,6,7-hexahydropyrrolizin-8-yl]methoxy]-1,3,5-triazin-2-yl]spiro[6H-thieno[3,4-b]thiophene-4,3′-azetidine]-3-carbonitrile] | > 8.00 | > 8.00 | 7.00 to 8.00 | > 8.00 |
